Drawing on patent publication US8293738B2, “Indazole inhibitors of kinase” (Abbott Laboratories, priority 2010, dated 2012), this text covers IC50 for eleven compounds.

Holding throughout (format): biochemical
The target in one assay is T1, Aurora B (Homo sapiens, UniProt Q96GD4).
T1 construct: Active Aurora B enzyme (recombinant residues 1-344)
The assay can be described thus: Aurora B enzyme assay (time-resolved fluorescence, histone H3 peptide). The settings on record: 1 mM ATP, 1 hour. How it is done: To determine Aurora B activity of representative compounds of the invention, Active Aurora B enzyme (recombinant residues 1-344) and INCENP (recombinant GST fusion protein (Upstate)) were incubated in wells of a 384 well plate with biotinylted histone H3 peptide residues 1-21 (Upstate), 1 mM ATP, and various concentrations of inhibitors in a HEPES buffer, pH 7.4 containing MgCl2, sodium othrovanadate, and Triton X-100. After 1 hour, the reaction was stopped with EDTA and anti-phospho-histone H3 Europium Cryptate (Cis-Bio) and SA-APC (Phycolink, Prozyme) were added to detect the phosphopeptide. The amount of phosphorylation was determined by the time-resolved fluorescence ratio of signals at 665 nm and 615 nm. The IC50's were calculated by an exponential fit of the inhibition values with the inhibitor concentrations using Assay Explorer software.

The next assay concerns the target T2, Aurora A (Homo sapiens, UniProt O14965).
T2 sequence (O14965 1-403): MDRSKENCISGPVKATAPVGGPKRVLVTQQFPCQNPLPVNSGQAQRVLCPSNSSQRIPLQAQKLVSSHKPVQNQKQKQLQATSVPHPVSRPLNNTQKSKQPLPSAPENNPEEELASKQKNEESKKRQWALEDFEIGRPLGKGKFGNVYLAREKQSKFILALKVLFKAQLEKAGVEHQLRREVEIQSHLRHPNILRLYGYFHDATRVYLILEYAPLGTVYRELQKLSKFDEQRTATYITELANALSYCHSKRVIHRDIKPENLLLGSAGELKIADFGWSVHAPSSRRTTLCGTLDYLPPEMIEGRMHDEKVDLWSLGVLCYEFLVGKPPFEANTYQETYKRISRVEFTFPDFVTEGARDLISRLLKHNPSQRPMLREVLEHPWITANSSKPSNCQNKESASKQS
The assay is described as follows: Aurora A enzyme assay (time-resolved fluorescence, STK substrate-2). The settings on record: 1 mM ATP, 1 hour. How it is done:
To determine Aurora A and C activity of representative compounds of the invention, Active Aurora A or C enzyme was incubated in wells of a 384 well plate with biotinylated STK substrate-2 (Upstate), 1 mM ATP, and various concentrations of inhibitors in a Hepes buffer, pH 7.4 containing MgCl2, sodium othrovanadate, and Triton X-100. After 1 hour, the reaction was stopped with EDTA and anti-phospho-STK antibody Europium Cryptate (Upstate) and SA-XL665 (Upstate) were added to detect the phosphopeptide. The amount of phosphorylation was determined by the time-resolved fluorescence ratio of signals at 665 nm and 615 nm. The IC50s were calculated by an exponential fit of the inhibition values with the inhibitor concentrations using Assay Explorer software.

The next assay deals with KDR (Homo sapiens, UniProt P35968). The assay is described as follows: KDR HTRF in vitro kinase assay. The settings on record: 1 mM ATP, 60 minutes. Also on record: purified enzyme (His6-KDR 789-1354, MW 63 kD). How it is done:
To determine the activity of the various kinases, a homogenous time-resolved fluorescence (HTRF) in vitro kinase assay was used. (Mathis, G., HTRF(R) Technology. J Biomol Screen, 1999. 4(6): p. 309-314; Alfred J. Kolb, Paul V. Kaplita, David J. Hayes, Young-Whan Park, Christine Pernell, John S. Major and Gerard Mathis, Drug Discovery Today, 1998, 3, 333-342.)
For example for KDR, 7 ng/well of purified enzyme (His6-KDR 789-1354, MW 63 kD) was mixed with 0.5 μM N-biotinylated substrate (Biotin-Ahx-AEEEYFFLA-amide (SEQ. ID. 1)), various concentrations of inhibitor in reaction buffer (50 mM HEPES, pH 7.1, mM MgCl2, 2 mM MnCl2, 0.1% BSA and 1 mM DTT, […] final volume), ATP (1 mM final conc.) in a black 384-well plate. After 60 minutes incubation at room temperature, the reaction was quenched by addition of a buffered EDTA solution (final approximate concentrations: 30 mM EDTA, 0.1% BSA, 0.1% Triton X-100 and 0.24M KF) and a solution of revelation agents (to give 0.084 ng/well streptavidin-XL-665 (Cis-Bio) and 6.5 ng/well antiphsophotyrosine mAb PT66-K Europium kryptate) was added to the reaction mixture. The quenched reaction was allowed to stand at room temperature for 3 hours and was then read in a time-resolved fluorescence detector (InVision, Perkin-Elmer) at 620 nm and 665 nm sequentially with excitation. The ratio between the signal of 620 nm and 665 nm was used in the calculation of the IC50.
For orientation: Time-resolved FRET reads energy transfer from a long-lived donor to a nearby acceptor.

Some results are limits rather than exact numbers.

T1 sequence (Q96GD4 whole entry, the tested form may be a part): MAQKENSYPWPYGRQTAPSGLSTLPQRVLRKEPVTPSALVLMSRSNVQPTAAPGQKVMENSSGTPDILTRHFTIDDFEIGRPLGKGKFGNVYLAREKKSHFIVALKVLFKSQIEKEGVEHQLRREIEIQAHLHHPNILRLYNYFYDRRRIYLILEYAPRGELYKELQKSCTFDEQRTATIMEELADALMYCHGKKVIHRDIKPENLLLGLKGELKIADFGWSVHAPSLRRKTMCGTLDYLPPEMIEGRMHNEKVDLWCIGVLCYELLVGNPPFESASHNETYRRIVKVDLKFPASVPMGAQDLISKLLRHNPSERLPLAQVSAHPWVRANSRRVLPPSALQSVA
T1 sequence (Q9NQS7 826-918 partner limits assumed): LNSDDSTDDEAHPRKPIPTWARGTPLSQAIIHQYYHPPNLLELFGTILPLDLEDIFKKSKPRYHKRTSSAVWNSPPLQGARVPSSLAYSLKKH
Sequence of KDR (P35968 789-1354): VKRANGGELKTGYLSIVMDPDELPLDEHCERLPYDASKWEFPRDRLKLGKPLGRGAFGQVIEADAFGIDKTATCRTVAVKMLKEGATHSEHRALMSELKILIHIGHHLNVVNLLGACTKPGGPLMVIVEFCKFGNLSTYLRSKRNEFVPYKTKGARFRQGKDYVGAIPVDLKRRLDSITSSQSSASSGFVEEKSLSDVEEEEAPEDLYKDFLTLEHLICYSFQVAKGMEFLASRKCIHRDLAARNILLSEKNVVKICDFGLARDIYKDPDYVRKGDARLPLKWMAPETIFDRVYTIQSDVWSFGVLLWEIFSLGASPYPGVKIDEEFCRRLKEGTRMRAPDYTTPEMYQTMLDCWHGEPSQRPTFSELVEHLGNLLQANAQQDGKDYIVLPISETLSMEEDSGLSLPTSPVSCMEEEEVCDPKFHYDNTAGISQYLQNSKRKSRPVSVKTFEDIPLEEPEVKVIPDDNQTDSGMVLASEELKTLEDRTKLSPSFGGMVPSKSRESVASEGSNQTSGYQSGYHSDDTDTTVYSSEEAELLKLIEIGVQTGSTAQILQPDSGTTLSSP

Take `Cc1cccc(NC(=O)Nc2ccc(-c3ccc4c(-c5ccc[nH]5)n[nH]c4c3)cc2)c1` [Example 4, N-(3-methylphenyl)-N′-{4-[3-(1H-pyrrol-2-yl)-1H-indazol-6-yl]phenyl}urea]: the IC50 (usually the concentration needed to halve the response being measured) at Aurora B stood at 207 nM; against Aurora A it was 1460 nM; against KDR it was 291 nM.

In the case of `Cc1cccc(NC(=O)Nc2ccc(-c3ccc4c(-c5cnn(CCN6CCOCC6)c5)n[nH]c4c3)cc2)c1` [Example 5, N-(3-methylphenyl)-N′-(4-{3-[1-(2-morpholin-4-ylethyl)-1H-pyrazol-4-yl]-1H-indazol-6-yl}phenyl)urea], the IC50 is 194 nM against Aurora B, above 12500 nM on Aurora A and 31.7 nM at KDR.

With `Cc1cccc(NC(=O)Nc2ccc(-c3ccc4c(-c5ccsc5)n[nH]c4c3)cc2)c1` [Example 7, N-(3-methylphenyl)-N′-[4-(3-thien-3-yl-1H-indazol-6-yl)phenyl]urea], the IC50 at Aurora B is above 12500 nM; against Aurora A it was above 12500 nM; against KDR, 12300 nM.

Consider `O=C(Nc1ccc(-c2ccc3c(-c4cnn(CCO)c4)n[nH]c3c2)cc1)Nc1cccc(C(F)(F)F)c1` [Example 11, N-(4-{3-[1-(2-hydroxyethyl)-1H-pyrazol-4-yl]-1H-indazol-6-yl}phenyl)-N′-[3-(trifluoromethyl)phenyl]urea], for which the values for the IC50 against Aurora B, against Aurora A and against KDR were 136 nM, above 12500 nM and 20.7 nM, respectively.

Regarding `CCCn1cc(-c2n[nH]c3cc(-c4ccc(NC(=O)Nc5cccc(F)c5)cc4)ccc23)cn1` [Example 13, N-(3-fluorophenyl)-N′-{4-[3-(1-propyl-1H-pyrazol-4-yl)-1H-indazol-6-yl]phenyl}urea], the IC50 against Aurora B turned out to be 86.4 nM; against Aurora A it was 10900 nM; at KDR, 217 nM.

Consider `Cn1nccc1-c1n[nH]c2cc(-c3ccc(NC(=O)Nc4cccc(F)c4)cc3)ccc12` [Example 14, N-(3-fluorophenyl)-N′-{4-[3-(1-methyl-1H-pyrazol-5-yl)-1H-indazol-6-yl]phenyl}urea], for which the IC50 at Aurora B, against Aurora A and on KDR was above 12500 nM each time.

On to `CC(C)(O)Cn1cc(-c2n[nH]c3cc(-c4ccc(NC(=O)Nc5cccc(F)c5)cc4)ccc23)cn1` [Example 15, N-(3-fluorophenyl)-N′-(4-{3-[1-(2-hydroxy-2-methylpropyl)-1H-pyrazol-4-yl]-1H-indazol-6-yl}phenyl)urea], for which the IC50 against Aurora B is 142 nM; on Aurora A, above 12500 nM; at KDR, 6690 nM.

For the compound `Cc1cccc(NC(=O)Nc2cccc(-c3ccc4c(-c5cnn(C)c5)n[nH]c4c3)c2)c1` [Example 17, N-(3-methylphenyl)-N′-{3-[3-(1-methyl-1H-pyrazol-4-yl)-1H-indazol-6-yl]phenyl}urea], the IC50 at Aurora B was 1320 nM; on Aurora A it was above 12500 nM; against KDR, 48.8 nM.

Turning to `Cn1cc(-c2n[nH]c3cc(-c4ccc(NC(=O)Nc5cccc(C(F)(F)F)c5)cc4)ccc23)cn1` [Example 18, N-{4-[3-(1-methyl-1H-pyrazol-4-yl)-1H-indazol-6-yl]phenyl}-N′-[3-(trifluoromethyl)phenyl]urea], the IC50 against Aurora B is 156 nM; at Aurora A, above 12500 nM; against KDR, 23.7 nM.

For the compound `Cn1cc(-c2n[nH]c3cc(-c4ccc(CNC(=O)Nc5cccc(F)c5)cc4)ccc23)cn1` [Example 24, N-(3-fluorophenyl)-N′-{4-[3-(1-methyl-1H-pyrazol-4-yl)-1H-indazol-6-yl]benzyl}urea], the IC50 was 1030 nM on Aurora B, above 12500 nM against Aurora A and above 12500 nM on KDR.

Turning to `Cn1cc(-c2n[nH]c3cc(-c4ccc(NC(=O)Nc5cccc(OC(F)(F)F)c5)cc4)ccc23)cn1` [Example 25, N-{4-[3-(1-methyl-1H-pyrazol-4-yl)-1H-indazol-6-yl]phenyl}-N′-[3-(trifluoromethoxy)phenyl]urea], the 50% inhibitory concentration (IC50) at Aurora B was 493 nM; on Aurora A, above 12500 nM; against KDR, 30.2 nM.
